Results published in ChEMBL document CHEMBL1201862, “PubChem BioAssay data set” (2004).
The source made the active and inactive calls.

Legend:
PglD = PglD (Campylobacter jejuni, UniProt O86157); assay: PglD acetyltransferase inhibitors, dose response, biochemical, DTNB absorbance, cherry-picked samples, set 2 (AID 624257); type: functional
[1] = molecular target: Voltage-dependent T-type calcium channel subunit alpha-1H (Homo sapiens, UniProt O95180); type: functional;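 note: channel activity triggered by adding a high calcium stimulation buffer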
[2] = ARNT/TACC3 interaction disruptors, potency, confirmation, biochemical, AlphaScreen, cherry-picked samples (AID 651703); type: functional, Homo sapiens;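 note: His-tagged ARNT PAS-B domain paired with GST-TACC3 E629A dimer coactivator fragment; potency of inhibitors that break up the complex and lower AlphaScreen signal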
H9c2 = assay: cells; type: functional, cell-based; settings: Rattus norvegicus, H9c2, Myocardium;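 note: confirmatory concentration-response retest of ultra-high-throughput screening hits for modulation of myocardial damage; cell death induced by hydrogen peroxide oxidative stress; compound pretreatment for 60 min then peroxide exposure for 2 h; potency is for protecting the cells against peroxide damage rather than for killing them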
[3] = molecular target: ATP-dependent translocase ABCB1 (Homo sapiens, UniProt P08183); assay: ABCB1 efflux inhibitor potency, dose response, Jurkat-DNR cells, JC-1, flow cytometry, set 2 (AID 504569); type: functional; settings: read-out: EC50_MICROM_;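 note: potency of pump inhibitors that raise cellular JC-1 green fluorescence up to the nicardipine level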
Chain of ATP-dependent translocase ABCB1 (P08183 whole entry): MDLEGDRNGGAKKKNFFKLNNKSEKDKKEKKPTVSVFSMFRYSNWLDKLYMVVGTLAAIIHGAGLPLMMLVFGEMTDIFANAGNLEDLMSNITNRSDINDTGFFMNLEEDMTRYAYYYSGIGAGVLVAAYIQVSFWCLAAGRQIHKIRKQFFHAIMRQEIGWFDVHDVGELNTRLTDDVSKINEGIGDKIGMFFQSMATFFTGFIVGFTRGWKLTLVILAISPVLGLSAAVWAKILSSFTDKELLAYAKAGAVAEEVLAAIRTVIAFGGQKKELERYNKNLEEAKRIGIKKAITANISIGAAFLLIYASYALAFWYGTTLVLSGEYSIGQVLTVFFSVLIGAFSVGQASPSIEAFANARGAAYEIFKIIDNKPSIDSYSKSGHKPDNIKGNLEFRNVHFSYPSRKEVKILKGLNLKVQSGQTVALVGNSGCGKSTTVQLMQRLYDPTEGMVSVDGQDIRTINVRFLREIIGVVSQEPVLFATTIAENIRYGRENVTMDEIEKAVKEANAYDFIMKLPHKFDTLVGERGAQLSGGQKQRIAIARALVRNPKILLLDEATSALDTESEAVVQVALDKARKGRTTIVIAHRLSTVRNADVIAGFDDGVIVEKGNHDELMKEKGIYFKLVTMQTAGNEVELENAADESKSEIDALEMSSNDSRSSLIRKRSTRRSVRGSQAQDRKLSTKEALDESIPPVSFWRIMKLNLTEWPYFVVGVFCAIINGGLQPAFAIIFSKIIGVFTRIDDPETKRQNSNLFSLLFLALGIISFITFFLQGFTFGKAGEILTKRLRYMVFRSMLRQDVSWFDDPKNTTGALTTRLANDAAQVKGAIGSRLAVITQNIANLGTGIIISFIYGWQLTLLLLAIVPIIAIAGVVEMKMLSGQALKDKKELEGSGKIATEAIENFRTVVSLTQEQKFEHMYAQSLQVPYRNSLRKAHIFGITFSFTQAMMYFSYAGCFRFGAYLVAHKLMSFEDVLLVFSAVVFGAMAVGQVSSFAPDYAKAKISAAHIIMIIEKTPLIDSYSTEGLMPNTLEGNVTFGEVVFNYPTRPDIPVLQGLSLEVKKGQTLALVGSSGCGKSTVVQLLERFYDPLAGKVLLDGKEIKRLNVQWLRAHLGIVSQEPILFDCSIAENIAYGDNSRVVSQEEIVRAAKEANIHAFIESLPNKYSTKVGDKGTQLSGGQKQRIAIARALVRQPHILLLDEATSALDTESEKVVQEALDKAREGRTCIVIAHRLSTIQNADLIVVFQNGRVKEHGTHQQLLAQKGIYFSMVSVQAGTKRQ

[4] = molecular target: T1, Protein disulfide-isomerase (Homo sapiens, UniProt P07237); assay: PDI inhibitors, insulin aggregation turbidity, dose response, biochemical, absorbance, cherry-picked samples (AID 602350); type: functional
T1 sequence (P07237 whole entry): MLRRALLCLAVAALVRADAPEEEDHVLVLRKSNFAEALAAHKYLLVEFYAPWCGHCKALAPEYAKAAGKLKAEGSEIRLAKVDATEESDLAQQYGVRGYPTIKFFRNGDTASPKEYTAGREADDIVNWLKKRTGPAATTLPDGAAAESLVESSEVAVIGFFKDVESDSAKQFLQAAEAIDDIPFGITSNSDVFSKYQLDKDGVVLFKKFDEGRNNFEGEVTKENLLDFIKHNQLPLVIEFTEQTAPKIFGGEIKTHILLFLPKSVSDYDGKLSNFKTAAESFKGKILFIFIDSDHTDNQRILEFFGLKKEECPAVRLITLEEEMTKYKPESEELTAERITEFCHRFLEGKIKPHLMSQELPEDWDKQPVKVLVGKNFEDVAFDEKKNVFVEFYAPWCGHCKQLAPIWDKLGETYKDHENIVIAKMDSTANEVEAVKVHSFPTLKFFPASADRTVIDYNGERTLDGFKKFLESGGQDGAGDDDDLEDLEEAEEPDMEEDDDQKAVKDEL

[5] = molecular target: T1, Protein disulfide-isomerase; assay: PDI inhibitors, insulin turbidity readout, dose response, biochemical, absorbance, cherry-picked samples, set 2 (AID 624274); type: functional
[6] = molecular target: T2, Delta-type opioid receptor (Homo sapiens, UniProt P41143); assay: HTS Image-Based Screen for Antagonists of the DOR Receptor. [Related pubchem assays (depositor defined):AID1777, AID1785, AID1786, AID2133]; type: functional
T2 sequence (P41143 whole entry): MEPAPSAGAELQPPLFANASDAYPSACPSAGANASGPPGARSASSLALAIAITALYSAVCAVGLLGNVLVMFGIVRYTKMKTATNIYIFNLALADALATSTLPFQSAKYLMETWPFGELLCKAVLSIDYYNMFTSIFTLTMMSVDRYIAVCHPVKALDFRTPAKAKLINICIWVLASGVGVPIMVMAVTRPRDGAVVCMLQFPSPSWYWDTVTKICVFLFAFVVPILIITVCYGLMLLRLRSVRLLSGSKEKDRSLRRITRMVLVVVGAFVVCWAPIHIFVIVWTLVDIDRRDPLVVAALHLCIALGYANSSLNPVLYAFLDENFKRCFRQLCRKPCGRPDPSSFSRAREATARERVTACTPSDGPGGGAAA

Mu-type opioid receptor = Mu-type opioid receptor (Homo sapiens, UniProt P35372); assay: HTS Image-Based Screen for Agonists of the MOR Receptor. [Related pubchem assays (depositor defined):AID1777, AID1785, AID1786, AID2133]; type: functional;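 note: imaging of beta-arrestin GFP recruitment into spots after receptor activation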
Chain of Mu-type opioid receptor (P35372 whole entry): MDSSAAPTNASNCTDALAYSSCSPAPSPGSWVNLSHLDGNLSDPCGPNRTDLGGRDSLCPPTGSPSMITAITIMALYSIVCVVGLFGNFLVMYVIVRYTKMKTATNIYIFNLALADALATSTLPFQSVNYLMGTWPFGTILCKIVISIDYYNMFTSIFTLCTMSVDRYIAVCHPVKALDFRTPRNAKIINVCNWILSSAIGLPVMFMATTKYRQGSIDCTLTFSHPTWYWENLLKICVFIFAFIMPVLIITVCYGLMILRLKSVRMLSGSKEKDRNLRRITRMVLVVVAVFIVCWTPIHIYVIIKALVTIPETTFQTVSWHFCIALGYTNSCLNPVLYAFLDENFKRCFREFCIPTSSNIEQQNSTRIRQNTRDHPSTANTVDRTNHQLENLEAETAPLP

[7] = molecular target: T2, Delta-type opioid receptor; assay: HTS Image-Based Screen for Agonists of the DOR Receptor. [Related pubchem assays (depositor defined):AID1777, AID1786, AID2133]; type: functional
[8] = inhibitors of intracellular T. cruzi replication, confirmation, NIH3T3 host cells, beta-gal luminescence (AID 2044); type: functional, cell-based;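 note: intracellular parasites grown in NIH/3T3 mouse fibroblasts as host cells; luminescent beta-galactosidase reporter signal from transgenic T. cruzi replicating inside host cells; inhibitors lower the luminescence signal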
[9] = molecular target: T3, Kappa-type opioid receptor (Homo sapiens, UniProt P41145); type: functional
T3 sequence (P41145 whole entry): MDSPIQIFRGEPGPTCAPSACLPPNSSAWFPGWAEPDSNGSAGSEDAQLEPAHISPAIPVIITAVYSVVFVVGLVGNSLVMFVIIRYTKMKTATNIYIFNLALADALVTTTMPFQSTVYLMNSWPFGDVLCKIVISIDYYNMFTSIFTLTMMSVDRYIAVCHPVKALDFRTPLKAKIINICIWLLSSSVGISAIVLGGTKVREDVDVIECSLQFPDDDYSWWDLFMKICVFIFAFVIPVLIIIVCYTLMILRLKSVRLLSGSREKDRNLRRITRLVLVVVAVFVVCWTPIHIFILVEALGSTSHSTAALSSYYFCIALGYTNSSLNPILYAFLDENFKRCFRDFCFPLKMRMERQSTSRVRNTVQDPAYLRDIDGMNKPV

[10] = cytotoxicity toward NIH3T3 fibroblasts, dose response, counter-screen, cell-based, ATP luminescence, mouse fibroblasts (AID 2010); type: functional;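 note: cells exposed to compound for about 90 hours before reading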
Beta-galactosidase [11] = molecular target: T4, Beta-galactosidase (Escherichia coli, UniProt Q8VNN2); type: functional
T4 sequence (Q8VNN2 whole entry): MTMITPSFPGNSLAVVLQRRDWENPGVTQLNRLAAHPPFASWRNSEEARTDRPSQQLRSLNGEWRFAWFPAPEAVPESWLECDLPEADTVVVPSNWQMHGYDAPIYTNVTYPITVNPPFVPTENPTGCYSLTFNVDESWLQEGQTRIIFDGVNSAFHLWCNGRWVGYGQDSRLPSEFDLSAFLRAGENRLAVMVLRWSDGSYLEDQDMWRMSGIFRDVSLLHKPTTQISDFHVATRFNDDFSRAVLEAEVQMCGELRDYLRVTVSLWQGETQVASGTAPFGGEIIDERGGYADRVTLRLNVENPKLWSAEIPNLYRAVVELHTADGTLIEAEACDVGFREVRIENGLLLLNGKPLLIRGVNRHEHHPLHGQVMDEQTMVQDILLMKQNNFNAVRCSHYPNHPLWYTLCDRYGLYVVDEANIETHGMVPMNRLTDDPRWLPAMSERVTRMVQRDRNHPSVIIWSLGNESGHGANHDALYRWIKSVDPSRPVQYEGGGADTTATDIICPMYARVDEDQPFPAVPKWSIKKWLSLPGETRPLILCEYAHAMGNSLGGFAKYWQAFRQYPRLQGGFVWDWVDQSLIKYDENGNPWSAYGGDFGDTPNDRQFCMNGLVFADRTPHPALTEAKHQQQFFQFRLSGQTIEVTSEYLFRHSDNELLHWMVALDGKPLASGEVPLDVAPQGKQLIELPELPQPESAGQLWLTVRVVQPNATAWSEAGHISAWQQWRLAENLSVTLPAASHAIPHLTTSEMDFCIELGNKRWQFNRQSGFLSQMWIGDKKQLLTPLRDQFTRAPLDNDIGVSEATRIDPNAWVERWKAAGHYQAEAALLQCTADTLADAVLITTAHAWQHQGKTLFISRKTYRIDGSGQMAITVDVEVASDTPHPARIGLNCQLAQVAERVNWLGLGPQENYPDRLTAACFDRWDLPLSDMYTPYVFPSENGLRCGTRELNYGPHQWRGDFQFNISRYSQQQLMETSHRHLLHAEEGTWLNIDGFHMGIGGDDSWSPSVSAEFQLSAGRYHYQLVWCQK

[12] = molecular target: T3, Kappa-type opioid receptor; type: functional; remark: listed apart in the source
[13] = molecular target: Glucose-6-phosphate 1-dehydrogenase (Homo sapiens, UniProt P11413); assay: human G6PD enzyme inhibitors, dose response, selectivity assay for P. falciparum G6PD inhibitor project, biochemical, fluorescence (AID 504792); type: functional
Chain of Glucose-6-phosphate 1-dehydrogenase (P11413 whole entry): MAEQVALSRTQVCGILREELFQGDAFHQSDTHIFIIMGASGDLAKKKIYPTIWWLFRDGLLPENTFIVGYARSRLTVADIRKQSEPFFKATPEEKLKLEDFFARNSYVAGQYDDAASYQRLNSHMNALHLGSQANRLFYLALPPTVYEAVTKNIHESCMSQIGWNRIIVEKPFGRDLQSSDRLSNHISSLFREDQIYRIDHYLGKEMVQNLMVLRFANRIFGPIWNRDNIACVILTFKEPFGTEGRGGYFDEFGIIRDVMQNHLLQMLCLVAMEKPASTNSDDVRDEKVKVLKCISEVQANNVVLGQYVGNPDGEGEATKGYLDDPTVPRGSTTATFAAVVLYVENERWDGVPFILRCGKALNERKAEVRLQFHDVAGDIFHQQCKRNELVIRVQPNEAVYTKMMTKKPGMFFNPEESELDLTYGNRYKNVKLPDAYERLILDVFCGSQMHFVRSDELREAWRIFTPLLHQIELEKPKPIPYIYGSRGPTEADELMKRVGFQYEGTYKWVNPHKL

[14] = molecular target: T5, Short transient receptor potential channel 4 (Mus musculus, UniProt Q9QUQ5); assay: mouse TRPC4 channel inhibitors, dose response, cell-based, HEK293 TRPC4/mu-opioid, Fluo-4 calcium (AID 434942); type: functional;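 note: potency of inhibitors blocking the TRPC4 calcium response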
T5 sequence (Q9QUQ5 whole entry): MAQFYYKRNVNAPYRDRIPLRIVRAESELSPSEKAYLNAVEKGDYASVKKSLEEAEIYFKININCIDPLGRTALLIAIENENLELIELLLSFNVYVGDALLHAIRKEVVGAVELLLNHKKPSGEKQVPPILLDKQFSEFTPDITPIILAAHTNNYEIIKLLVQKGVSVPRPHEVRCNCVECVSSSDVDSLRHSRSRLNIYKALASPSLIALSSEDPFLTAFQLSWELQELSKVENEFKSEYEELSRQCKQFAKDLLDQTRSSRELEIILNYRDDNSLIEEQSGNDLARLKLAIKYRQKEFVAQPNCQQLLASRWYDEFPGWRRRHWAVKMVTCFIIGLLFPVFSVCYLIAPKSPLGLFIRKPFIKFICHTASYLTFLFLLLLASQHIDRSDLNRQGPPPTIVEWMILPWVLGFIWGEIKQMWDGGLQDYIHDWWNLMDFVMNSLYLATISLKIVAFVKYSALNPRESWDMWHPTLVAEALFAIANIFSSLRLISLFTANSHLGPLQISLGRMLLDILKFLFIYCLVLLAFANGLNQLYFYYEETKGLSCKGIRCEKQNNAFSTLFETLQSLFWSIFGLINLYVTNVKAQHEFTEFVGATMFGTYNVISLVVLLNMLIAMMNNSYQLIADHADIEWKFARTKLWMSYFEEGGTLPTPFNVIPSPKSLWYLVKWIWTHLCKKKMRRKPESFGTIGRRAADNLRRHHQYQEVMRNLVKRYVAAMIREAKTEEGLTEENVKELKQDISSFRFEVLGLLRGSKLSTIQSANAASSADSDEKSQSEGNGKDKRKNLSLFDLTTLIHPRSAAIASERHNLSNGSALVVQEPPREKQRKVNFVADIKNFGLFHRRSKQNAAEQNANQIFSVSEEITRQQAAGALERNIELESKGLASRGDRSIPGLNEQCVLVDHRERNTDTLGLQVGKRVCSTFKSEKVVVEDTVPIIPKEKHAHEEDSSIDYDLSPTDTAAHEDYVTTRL

Beta-galactosidase [15] = molecular target: T4, Beta-galactosidase; assay: beta-galactosidase enzyme inhibitors and activators, dose response, artefact control for CCR6 antagonist project, biochemical, E. coli enzyme, set 3 (AID 504712); type: functional
[16] = molecular target: T6, Microphthalmia-associated transcription factor (Homo sapiens, UniProt O75030); assay: TRPM1 promoter luciferase signal decrease, dose response, MITF inhibitor project, cell-based, SK-MEL-5, cherry-picked, set 3 (AID 493073); type: functional
T6 sequence (O75030 whole entry): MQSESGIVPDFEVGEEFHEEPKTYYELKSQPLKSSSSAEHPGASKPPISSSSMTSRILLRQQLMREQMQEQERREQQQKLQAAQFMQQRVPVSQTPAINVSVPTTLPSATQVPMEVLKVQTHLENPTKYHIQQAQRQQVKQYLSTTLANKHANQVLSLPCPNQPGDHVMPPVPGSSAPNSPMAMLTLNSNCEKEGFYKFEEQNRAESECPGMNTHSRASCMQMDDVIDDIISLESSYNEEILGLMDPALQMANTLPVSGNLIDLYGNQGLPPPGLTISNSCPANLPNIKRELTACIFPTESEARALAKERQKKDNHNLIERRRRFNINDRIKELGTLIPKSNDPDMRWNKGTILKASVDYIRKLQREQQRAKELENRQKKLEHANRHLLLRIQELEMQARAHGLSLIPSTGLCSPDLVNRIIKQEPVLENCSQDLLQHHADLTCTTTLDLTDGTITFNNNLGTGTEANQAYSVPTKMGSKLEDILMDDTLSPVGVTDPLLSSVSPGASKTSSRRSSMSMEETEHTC

[17] = molecular target: Heat shock protein HSP 90-alpha (Homo sapiens, UniProt P07900); type: functional, organism-based
Melanocortin receptor 4 = Melanocortin receptor 4 (Homo sapiens, UniProt P32245); assay: MC4R antagonist potency on cAMP, dose response, cell-based, TR-FRET, biased antagonists (AID 602298); type: functional;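 note: antagonist potency against agonist-stimulated cAMP production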
Chain of Melanocortin receptor 4 (P32245 whole entry): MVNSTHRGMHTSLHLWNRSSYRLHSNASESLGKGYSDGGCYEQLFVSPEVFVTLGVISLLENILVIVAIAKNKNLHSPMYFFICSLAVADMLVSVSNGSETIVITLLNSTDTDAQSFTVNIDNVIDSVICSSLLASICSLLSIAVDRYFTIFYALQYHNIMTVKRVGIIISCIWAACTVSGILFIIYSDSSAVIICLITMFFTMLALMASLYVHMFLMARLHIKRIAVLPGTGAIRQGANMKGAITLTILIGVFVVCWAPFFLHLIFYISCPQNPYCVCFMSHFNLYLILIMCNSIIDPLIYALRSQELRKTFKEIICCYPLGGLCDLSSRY

[18] = nonselective inhibitors of cellular cAMP signaling, dose response, counter-screen for MC4R biased antagonist project, cell-based, TR-FRET cAMP detection (AID 602305); type: functional;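 note: U2OS cells stimulated with forskolin near its EC80 as the cAMP inducer; potency is for inhibition of forskolin-stimulated cAMP signaling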
[19] = NIH-3T3 fibroblast cytotoxicity, dose response, cytotoxicity control for antifungal single agent project, cell-based, Alamar Blue, dry powder (AID 602188); type: functional

Chain of PglD (O86157 whole entry): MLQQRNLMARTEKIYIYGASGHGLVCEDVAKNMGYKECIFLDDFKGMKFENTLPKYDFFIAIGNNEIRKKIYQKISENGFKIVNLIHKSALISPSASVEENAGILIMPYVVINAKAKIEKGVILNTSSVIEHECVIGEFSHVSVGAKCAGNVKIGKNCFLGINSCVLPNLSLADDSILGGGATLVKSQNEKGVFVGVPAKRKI

Q: Which AC50 (PglD) does the source give for `Cc1c(C(=O)O)sc2nc(/C=C/c3cccc(O)c3)nc(O)c12` here?
A: 4.58 µM (active)

Q: With `COc1ccc(C(c2nnnn2C2CCCC2)N2CCc3ccccc3C2)cc1OC` (stereo not drawn) as the compound, how does the EC50 [1] read?
A: 5.07 µM (active)

Q: What about the AC50 [2] of the same compound?
A: 132 µM (active)

Q: Which results are given for `COc1ccc(-c2cc3nc(-c4ccccc4)cc(N4CCN(C(=O)c5ccoc5)CC4)n3n2)cc1`?
A: IC50 (H9c2): > 79 µM (inactive); EC50 [3]: 0.94 µM (active)

Q: Which results are given for `CC1Cc2ccccc2N1C(=O)CSc1nnc2sc3ccccc3n12` (stereo not drawn)?
A: AC50 [4]: < 0.009 µM (active); AC50 [5]: 0.009 µM (active)

Q: Which IC50 [6] does the source give for `Cc1ccc(NC(=O)c2cc(N3C(=O)C=CC3=O)ccc2N2CCOCC2)cc1` here?
A: > 32 µM (inactive)

Q: What about the EC50 (Mu-type opioid receptor) of the same compound?
A: > 32 µM (inactive)

Q: What about the EC50 [7] of the same compound?
A: > 32 µM (inactive)

Q: What about the EC50 [8] of the same compound?
A: 2.85 µM (active)

Q: What about the IC50 [9] of the same compound?
A: 8.25 µM (active)

Q: And the EC50 [10]?
A: 6.01 µM (active)

Q: What about the EC50 (Beta-galactosidase [11]) of the same compound?
A: > 31.5 µM (inactive)

Q: And the IC50 [12]?
A: 23.7 µM

Q: What about the IC50 [13] of the same compound?
A: 53 µM (inactive)

Q: What about the EC50 [14] of the same compound?
A: 5.31 µM (active)

Q: And the IC50 (Beta-galactosidase [15])?
A: > 66.6 µM (inactive)

Q: And the AC50 [16]?
A: 11.6 µM (active)

Q: And the AC50 [17]?
A: 0.591 µM (active)

Q: What about the IC50 (Melanocortin receptor 4) of the same compound?
A: 11.9 µM (inactive)

Q: And the IC50 [18]?
A: 39 µM (inactive)

Q: With `Oc1c(CN2CCN(c3ccccc3)CC2)cc(Cl)c2cccnc12` as the compound, how does the AC50 [19] read?
A: 0.964 µM (active)
